# Results taken from US20210139846A1, “ENGINEERED CELLS, AND METHODS OF USING THE SAME” (Board of Supervisors of Louisiana State University and …, priority 2017, published 2021).
# What was measured:
# [1] = biological target: T1, AdipoR1 (Homo sapiens, UniProt Q96A54); experiment: DHA-d5 / AA-d8 uptake by hASCs overexpressing AdipoR1, LC-MS/MS, with adiporon (FIG. 11); type: cell-based
# T1 construct: host or cells: human adipose tissue-derived stem cells (hASC); human primary retinal pigment epithelial (ABC) cells
# T1 sequence (Q96A54 1-375): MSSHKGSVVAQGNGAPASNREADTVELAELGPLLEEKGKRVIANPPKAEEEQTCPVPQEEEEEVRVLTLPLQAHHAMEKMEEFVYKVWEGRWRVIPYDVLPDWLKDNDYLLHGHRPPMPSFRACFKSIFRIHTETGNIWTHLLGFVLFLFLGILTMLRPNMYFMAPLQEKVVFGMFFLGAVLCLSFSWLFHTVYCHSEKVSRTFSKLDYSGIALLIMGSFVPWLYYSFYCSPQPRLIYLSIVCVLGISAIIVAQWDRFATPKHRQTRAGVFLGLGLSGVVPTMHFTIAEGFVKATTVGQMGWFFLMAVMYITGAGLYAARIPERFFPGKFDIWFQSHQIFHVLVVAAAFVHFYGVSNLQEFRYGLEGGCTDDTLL
# Procedure: Stable clones of hASCs overexpressing AdipoR1 or mCherry following lentivirus transduction, were incubated overnight in the presence or not of DHA-d5 or AA-d8 (1 μM) and vehicle DMSO with various concentrations of AdipoR1 […] adiporon (1-50 μM). […] Compared to DHA-d5 uptake, levels of AA-d8 were extremely low under these conditions.
# [2] = test system: ischemic stroke; experiment: DHA administered icv after ischemic stroke (FIG. 7); type: in vivo, rats
# [3] = test system: SD male rats, 2 h of MCAo; experiment: 2 h MCAo by intraluminal suture, DHA 5 mg/kg IV (FIG. 16-23); type: in vivo
# Procedure: (11-12 weeks old); Model: 2 h of MCAo by intraluminal suture; DHA (5 mg/kg) or Saline treatments (IV)—at 3 h from onset of MCAo; BrdU labeling at days 4, 5, 6; Immunohistochemistry on week 2
# [4] = test system: human adipose tissue derived stem cells; experiment: Chemical transdifferentiation of stem cells into neurons with DHA (FIG. 12); type: cell-based; conditions: 24 hours, induction media containing DHA (504) vs induction medium alone
# Procedure: Images were taken 24 hours following incubation in the presence of induction media containing or not containing DHA (504).
# [5] = test system: SD male rats, 2 h of MCAo; conditions: DHA systemically injected; reference 8; cited from earlier work
# [6] = test system: neurons and neural stem/progenitor cells; conditions: cited from earlier work
# [7] = DHA 5 mg/kg IV, immunohistochemistry on week 2
compound,measurement,setting,value
O=C(COc1ccc(C(=O)c2ccccc2)cc1)NC1CCN(Cc2ccccc2)CC1 [adiporon],effect on DHA-d5 uptake of AdipoR1 transduced cells,"[1]; adiporon 1-50 μM, 1 μM DHA-d5 overnight",further increased
"CC/C=C\C/C=C\C/C=C\C/C=C\C/C=C\C/C=C\CCC(=O)O [DHA, 4,7,10,13,16,19-docosahexanoic acid]",ischemic brain damage,"[2]; DHA at the site where GESC would be administered (icv), 7 days",reduced
same,behavioral functions,"[2]; DHA icv, 7 days",improves
same,protection by DHA administered icv,[2]; icv,protective
same,total neurologic deficits,[3]; DHA 5 mg/kg IV at 3 h from onset of MCAo vs saline,improved
same,cortical infarct volume,"[3]; DHA 5 mg/kg IV, histopathology",reduced
same,total infarct volume,"[3]; DHA 5 mg/kg IV, histopathology",reduced
same,"BrdU+/DCX+ cells in cortex, SVZ and DG",[3]; [7],increased
same,"BrdU+/NeuN+ cells in cortex, SVZ and DG",[3]; [7],increased
same,"BrdU+/ki-67+ cells in cortex, SVZ and DG",[3]; [7],increased
same,"neurogenesis in the DG, SVZ and peri-infarct area","[3]; proliferation, differentiation and migration of neural stem cells",increased
same,infarct volume,"[3]; rat, in vivo",reduced
same,neurobehavioral recovery,"[3]; rat, in vivo",promoted
same,percentage of morphologically mature neurons,[4],strongly increased
same,neuroprotection against ischemic stroke,[5],neuroprotective
same,"neurite growth, synaptogenesis, synaptic protein expression and synaptic functions in hippocamal neuron","[6]; Cao, D et al., 2009",promotes
same,neurite outgrowth,"[6]; DHA supplementation, L. Dagai et al., 2009",accelerated
same,neuronal differentiation of neural stem cells,"[6]; M. Katakura et al., 2009",enhances
same,number of neurons derived from neural stem/progenitor cells,"[6]; Nobuyuki Sakayoti et al., 2011",increases
CCCCC/C=C\C/C=C\C/C=C\C/C=C\CCCC(=O)O [AA-d8],levels of AA-d8 compared to DHA-d5 uptake,[1]; 1 μM AA-d8 overnight in hASCs,extremely low
